Where a name gives a salt, the structure may show the parent alone.
Tests used:
[1] = general description of the UV filter; cited from earlier work
[2] = Measurement of interfacial tension (polarity index) of emollients; type: physicochemical; conditions: interfacial tension emollient/water, Tensimat Densimat TD2000
Text: The term “polarity index” refers to non-polar or polar oils. Non-polar oils are mainly based on hydrocarbons and lack an electronegative element, such as oxygen. In contrast, polar oils contain heteroatoms that differ in electronegativity, which results in a dipole moment. However, such oils are still insoluble in water, i.e. hydrophob. The polarity index can be determined by measuring the interfacial tension between the respective oil and water.
Interfacial tension of the respective emollients as listed below was measured using a Tensimat Densimat TD2000.

SMILES	polarity index [2] [mN/m]	absorption maximum [1] [nm]
COc1ccc(C(=O)CC(=O)c2ccc(C(C)(C)C)cc2)cc1 [BMDBM, 1-(4-(1,1-dimethylethyl)phenyl)-3-(4-methoxyphenyl)propane-1,3-dione]	–	357
CCCCC(CC)COC(=O)/C=C/c1ccc(OC)cc1 (centres unmarked) [ethylhexyl methoxy cinnamate, 2-Ethylhexyl-(2E)-3-(4-methoxyphenyl)acrylate]	–	310
CCCCCCOC(=O)c1ccccc1C(=O)c1ccc(N(CC)CC)cc1O [DHHB, hexyl 2-[4-(diethylamino)-2-hydroxybenzoyl]benzoate]	–	354
CCCCOC(=O)CCCCC(=O)OCCCC [dibutyl adipate]	14	–
c1ccc(-c2ccc(-c3nc(-c4ccc(-c5ccccc5)cc4)nc(-c4ccc(-c5ccccc5)cc4)n3)cc2)cc1 [tris-biphenyl triazine, 2,4,6-Tris(biphenyl-4-yl)-1,3,5-triazine]	–	310
CCCCCCCCCCC(CO)CCCCCCCC (centres unmarked) [octyldodecanol]	25	–

The next lines start with results.

polarity index [2] [mN/m]	SMILES	absorption maximum [1] [nm]
19	CC(C)OC(=O)CCCCCCCCC(=O)OC(C)C [diisopropyl sebacate]	–
10	CCCCOC(=O)CC(O)(CC(=O)OCCCC)C(=O)OCCCC [tributyl citrate]	–
19	O=C(OCCc1ccccc1)c1ccccc1 [phenethyl benzoate]	–
7	CCOC(=O)CC(O)(CC(=O)OCC)C(=O)OCC [triethyl citrate]	–
12	CC(C)OC(=O)CCCCC(=O)OC(C)C [diisopropyl adipate]	–

Source: patent US12090220B2, “Efficient sunscreen compositions with diethylamino hydroxybenzoyl hexyl benzoate, butyl methoxydibenzoylmethane and organic particulate UV filter” (BASF SE, priority 2019, dated 2024)
